Measured values published in the Kinase Knowledgebase extract (Sharma et al. 2016).

Experiments:
EGFR = EGFR (UniProt P00533); settings: concentration not given here
CDK2 = CDK2 (UniProt P24941); assay: Enzyme Assay

Chain of EGFR (P00533 whole entry, looked up): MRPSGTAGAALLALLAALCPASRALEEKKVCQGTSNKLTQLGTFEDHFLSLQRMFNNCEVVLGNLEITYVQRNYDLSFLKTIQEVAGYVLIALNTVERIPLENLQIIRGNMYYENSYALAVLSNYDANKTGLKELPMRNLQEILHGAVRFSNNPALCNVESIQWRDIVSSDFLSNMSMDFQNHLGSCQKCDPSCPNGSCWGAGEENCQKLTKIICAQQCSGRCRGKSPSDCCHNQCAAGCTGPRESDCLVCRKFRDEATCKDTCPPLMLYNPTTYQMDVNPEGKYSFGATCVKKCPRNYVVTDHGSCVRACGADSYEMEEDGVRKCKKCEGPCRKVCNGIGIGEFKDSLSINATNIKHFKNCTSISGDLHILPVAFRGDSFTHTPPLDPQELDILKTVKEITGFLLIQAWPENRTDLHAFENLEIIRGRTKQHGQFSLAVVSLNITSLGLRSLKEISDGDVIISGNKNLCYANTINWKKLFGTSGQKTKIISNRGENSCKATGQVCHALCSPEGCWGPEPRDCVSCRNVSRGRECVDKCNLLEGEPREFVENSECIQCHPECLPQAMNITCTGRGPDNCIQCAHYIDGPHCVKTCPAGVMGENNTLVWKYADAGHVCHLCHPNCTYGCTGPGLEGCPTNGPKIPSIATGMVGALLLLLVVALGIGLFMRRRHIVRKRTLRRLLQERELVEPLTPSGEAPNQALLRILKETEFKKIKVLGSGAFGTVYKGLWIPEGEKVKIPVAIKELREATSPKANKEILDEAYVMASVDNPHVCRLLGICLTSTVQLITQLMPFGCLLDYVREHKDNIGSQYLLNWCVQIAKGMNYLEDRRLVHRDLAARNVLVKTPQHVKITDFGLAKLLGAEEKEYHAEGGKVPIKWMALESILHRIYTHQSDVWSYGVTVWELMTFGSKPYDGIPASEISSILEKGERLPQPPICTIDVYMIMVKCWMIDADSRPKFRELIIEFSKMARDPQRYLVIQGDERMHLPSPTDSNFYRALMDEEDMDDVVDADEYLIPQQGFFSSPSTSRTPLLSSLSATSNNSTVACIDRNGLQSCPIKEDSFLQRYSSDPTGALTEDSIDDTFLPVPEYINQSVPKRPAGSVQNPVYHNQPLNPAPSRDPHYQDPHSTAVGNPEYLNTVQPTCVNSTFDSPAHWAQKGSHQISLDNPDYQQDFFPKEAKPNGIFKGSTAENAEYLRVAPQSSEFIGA

SMILES	inhibition (EGFR) [%]	IC50 (CDK2) [µM]
CCCS(=O)(=O)Nc1cc(Nc2cc(-c3cccc(N)c3)ncn2)ccc1C	> 80	0.001 to 1
Cc1ccc(Nc2cc(-c3cccc(N)c3)ncn2)cc1NS(=O)(=O)c1ccccc1	50 to 80	1 to 10
Cc1ccc(Nc2cc(-c3cccc(N)c3)ncn2)cc1NS(C)(=O)=O	> 80	0.001 to 1
COc1ccccc1-c1cc(Nc2ccc(NC(=O)[C@@H]3Cc4ccccc4CN3)cc2)ncn1	> 80	1 to 10
Nc1ccc(C(=O)Nc2ccc(Nc3cc(Cl)ncn3)cc2)cc1		10 to 250
COc1ncccc1-c1cc(Nc2ccc(NC(=O)[C@@H]3CCCCN3)cc2)ncn1		1 to 10
CC(C)Oc1ccccc1-c1cc(Nc2ccc(NC(=O)c3ccc(N)cc3)cc2)ncn1	50 to 80	0.001 to 1
COc1ccc(OC)c(-c2cc(Nc3ccc(NC(=O)c4ccc(N)cc4)cc3)ncn2)c1		10 to 250
CS(=O)(=O)Nc1cc(Nc2cc(-c3cccc(N)c3)ncn2)ccc1OCc1ccccc1		1 to 10
COc1ccccc1-c1cc(Nc2ccc(-c3nc4ccccc4[nH]3)cc2)ncn1		0.001 to 1
CC(C)(C)C(=O)Nc1ccc(Nc2cc(Cl)ncn2)cc1		10 to 250
Cc1ccc(Nc2cc(-c3cncnc3)ncn2)cc1NS(C)(=O)=O		1 to 10
CC(C)(C)C(=O)Nc1ccc(Nc2cc(NCCN)ncn2)cc1		10 to 250
CCOc1ccccc1-c1cc(Nc2ccc(NC(=O)c3ccc(N)cc3)cc2)ncn1		1 to 10
COc1ccc(-c2cc(Nc3ccc(NC(=O)c4ccc(N)cc4)cc3)ncn2)cc1		1 to 10
COc1cccc(-c2cc(Nc3ccc(NC(=O)[C@@H]4CCCCN4)cc3)ncn2)c1OC		10 to 250
COc1ccccc1-c1cc(Nc2ccc(NC(=O)c3ccc4ccccc4c3O)cc2)ncn1		1 to 10
CC(C)(C)C(=O)Nc1ccc(Nc2cc(-c3ccccc3F)ncn2)cc1		10 to 250
COc1cccc(-c2cc(Nc3ccc(NC(=O)c4ccc(N)cc4)cc3)ncn2)c1OC		1 to 10
Nc1ccc(C(=O)Nc2ccc(Nc3cc(-c4ccccc4O)ncn3)cc2)cc1		10 to 250

SMILES	inhibition (EGFR) [%]	IC50 (CDK2) [µM]
COc1ccc(-c2cc(Nc3ccc(NC(=O)[C@@H]4CCCCN4)cc3)ncn2)c(OC)c1		1 to 10
COc1ccccc1-c1cc(Nc2ccc(NC(=O)c3ccc4c(c3)OCO4)cc2)ncn1		1 to 10
CS(=O)(=O)Nc1cccc(-c2cc(Nc3ccc(C(=O)N[C@@H]4CCCC[C@H]4N)cc3)ncn2)c1.CS(=O)(=O)Nc1cccc(-c2cc(Nc3ccc(C(=O)N[C@H]4CCCC[C@@H]4N)cc3)ncn2)c1		1 to 10
O=C(Nc1ccc(Nc2cc(-c3ccccc3OCc3ccccc3)ncn2)cc1)[C@@H]1CCCCN1		0.001 to 1
COc1ccccc1-c1cc(N(C)c2ccc(N)cc2)ncn1		1 to 10
COc1ccc(-c2cc(Nc3ccc(C(=O)N[C@@H]4CCCC[C@H]4N)cc3)ncn2)cc1.COc1ccc(-c2cc(Nc3ccc(C(=O)N[C@H]4CCCC[C@@H]4N)cc3)ncn2)cc1		1 to 10
CN1CCC(Nc2cc(Nc3ccc(NC(=O)C(C)(C)C)cc3)ncn2)CC1		10 to 250
N[C@@H]1CCCC[C@H]1NC(=O)c1ccc(Nc2cc(-c3ccccc3OCc3ccccc3)ncn2)cc1.N[C@H]1CCCC[C@@H]1NC(=O)c1ccc(Nc2cc(-c3ccccc3OCc3ccccc3)ncn2)cc1		0.001 to 1
Cc1ccc(Nc2cc(-c3cccc(N)c3)ncn2)cc1NS(=O)(=O)c1cn(C)cn1		0.001 to 1
COc1ccc(-c2cc(Nc3cccc(S(N)(=O)=O)c3)ncn2)cc1		0.001 to 1
CC(=O)Nc1cccc(-c2cc(Nc3ccc(C)c(NS(C)(=O)=O)c3)ncn2)c1		1 to 10
CC(C)(C)C(=O)Nc1ccc(Nc2cc(-c3ccccc3C(F)(F)F)ncn2)cc1		10 to 250
NC(=O)c1ccc(Nc2cc(-c3ccccc3OCc3ccccc3)ncn2)cc1	50 to 80	0.001 to 1
Cc1ccc(Nc2cc(-c3cccc(N(C)C)c3)ncn2)cc1NS(C)(=O)=O		1 to 10
NCCCOc1ccccc1-c1cc(Nc2ccc(NC(=O)c3ccc(N)cc3)cc2)ncn1	> 80	1 to 10
COc1ccccc1-c1cc(Nc2ccc(C(=O)N[C@@H]3CCCC[C@H]3N)cc2)ncn1.COc1ccccc1-c1cc(Nc2ccc(C(=O)N[C@H]3CCCC[C@@H]3N)cc2)ncn1	50 to 80	1 to 10
CC(C)(C)C(=O)Nc1ccc(Nc2cc(-c3ccccc3OCc3ccccc3)ncn2)cc1		1 to 10
Nc1ccc(C(=O)Nc2ccc(Nc3cc(-c4ccccc4)ncn3)cc2)cc1		10 to 250
Cc1ccc(S(=O)(=O)Nc2ccc(Nc3cc(-c4ccc(O)cc4)ncn3)cc2)cc1		0.001 to 1
Nc1ccc(C(=O)Nc2ccc(Nc3cc(-c4ccc(O)cc4)ncn3)cc2)cc1		1 to 10

SMILES	inhibition (EGFR) [%]	IC50 (CDK2) [µM]
COc1ccccc1-c1cc(Nc2cccc(NC(=O)C(C)(C)C)c2)ncn1		1 to 10
COc1ccccc1-c1cc(Nc2ccc(NC(=O)CC3CCCCN3C(=O)OC(C)(C)C)cc2)ncn1 (configuration not stated)		1 to 10
Nc1cccc(-c2cc(NCCc3ccncc3)ncn2)c1		1 to 10
Nc1ccc(C(=O)Nc2ccc(Nc3cc(-c4ccccc4OCc4ccccc4)ncn3)cc2)cc1	30 to 50	1 to 10
COc1ccc(-c2cc(Nc3ccc(NC(=O)c4ccc(N)cc4)cc3)ncn2)c(OC)c1		0.001 to 1
COc1ccccc1-c1cc(Nc2ccc(NC(=O)c3ccc(N)cc3)cc2)nc(N)n1		10 to 250
Cc1ccc(Nc2cc(-c3ccccc3)ncn2)cc1NS(C)(=O)=O		0.001 to 1
O=C(Nc1ccc(Nc2cc(-c3ccccc3Cl)ncn2)cc1)[C@@H]1CCCCN1		10 to 250
COC(=O)CN(c1ccc(Nc2cc(-c3ccccc3OC)ncn2)cc1)S(=O)(=O)c1ccc(C)cc1		1 to 10
COc1ccccc1-c1ncnc(Nc2ccc(N)cc2)c1C		10 to 250
Cc1ccc(Nc2cc(-c3ccccc3O)ncn2)cc1NS(C)(=O)=O		0.001 to 1
COc1ccccc1-c1cc(Nc2ccc(N)cc2C)ncn1		1 to 10
CC(C)Oc1ccccc1-c1cc(NCCc2ccncc2)ncn1		1 to 10
CS(=O)(=O)Nc1cccc(Nc2cc(-c3cccc(N)c3)ncn2)c1		1 to 10
Cc1ccc(Nc2cc(-c3cccc(C#N)c3)ncn2)cc1NS(C)(=O)=O		1 to 10
Cc1ccc(S(=O)(=O)Nc2ccc(Nc3cc(-c4ccc(CCC(=O)O)cc4)ncn3)cc2)cc1		10 to 250
COc1ccccc1-c1cc(Nc2ccc(NC(=O)[C@@H]3CCCCN3C(=O)OC(C)(C)C)cc2)ncn1		1 to 10
COc1ccccc1-c1cc(Nc2ccc(NC(=O)c3c[nH]c4ccccc34)cc2)ncn1		1 to 10
COc1ccccc1-c1cc(Nc2ccc(NC(=O)C34CC5CC(CC(C5)C3)C4)cc2)ncn1		10 to 250

Continued, values first:

inhibition (EGFR) [%]	IC50 (CDK2) [µM]	SMILES
> 80	1 to 10	COc1ccccc1-c1cc(Nc2ccc(NC(=O)C3(N)CCCC3)cc2)ncn1
50 to 80	1 to 10	COc1ccccc1-c1cc(Nc2ccc(NC(=O)[C@@H](N)c3ccccc3)cc2)ncn1
30 to 50	1 to 10	COc1ccccc1-c1cc(Nc2ccc(NC(=O)Cc3ccccc3)cc2)ncn1
30 to 50	1 to 10	COc1ccccc1-c1cc(Nc2ccc(NC(=O)NC3CCCCC3)cc2)ncn1
> 80	1 to 10	COc1ccccc1-c1cc(Nc2ccc(NC(=O)[C@H]3CCCN3)cc2)ncn1
50 to 80	1 to 10	COc1ccccc1-c1cc(Nc2ccc(NC(=O)c3cn(C)cn3)cc2)ncn1
	10 to 250	COc1ccccc1-c1cc(Nc2ccc(NC(=O)C3CC4CCC3C4)cc2)ncn1 (configuration not stated)
	0.001 to 1	COc1ccccc1-c1cc(Nc2ccc(NS(=O)(=O)C(C)C)cc2)ncn1
	0.001 to 1	COc1ccccc1-c1cc(Nc2ccc(NS(=O)(=O)c3ccc(C)cc3)cc2)ncn1
	1 to 10	COc1ccccc1-c1cc(Nc2ccc(NC(=O)C(C)(C)C)cc2)ncn1
	1 to 10	CCCCNS(=O)(=O)c1cccc(Nc2cc(-c3ccccc3OC)ncn2)c1
50 to 80	0.001 to 1	COc1ccccc1-c1cc(Nc2ccc(NC(C)=O)cc2)ncn1
> 80	1 to 10	CCN(CC)CCC(=O)Nc1ccc(Nc2cc(-c3ccccc3OC)ncn2)cc1
> 80	1 to 10	CNC(C)(C)C(=O)Nc1ccc(Nc2cc(-c3ccccc3OC)ncn2)cc1
	0.001 to 1	COC(=O)c1ccc(Nc2cc(-c3ccccc3OC)ncn2)cc1
	0.001 to 1	CCCS(=O)(=O)Nc1ccc(Nc2cc(-c3ccccc3OC)ncn2)cc1
> 80	1 to 10	COc1ccccc1-c1cc(Nc2ccc(NC(=O)C3CCCN(C)C3)cc2)ncn1 (configuration not stated)

inhibition (EGFR) [%]	IC50 (CDK2) [µM]	SMILES
> 80	1 to 10	COc1ccccc1-c1cc(Nc2ccc(NC(=O)C3(N)CCCCC3)cc2)ncn1
	1 to 10	COc1ccccc1-c1cc(Nc2ccc(NC(=O)c3ccccc3N)cc2)ncn1
50 to 80	0.001 to 1	COc1ccccc1-c1cc(Nc2ccc(N3CCCC3=O)cc2)ncn1
	10 to 250	COc1ccccc1-c1cc(Nc2ccc(NC(=O)c3nc4ccccc4s3)cc2)ncn1
> 80	0.001 to 1	COc1ccccc1-c1cc(Nc2ccc(N)cc2)ncn1
	10 to 250	COc1ccccc1-c1cc(Nc2ccc(NC(=O)NCc3ccc(C)cc3)cc2)ncn1
50 to 80	0.001 to 1	COc1ccccc1-c1cc(Nc2ccc(NS(C)(=O)=O)cc2)ncn1
> 80	1 to 10	COc1ccccc1-c1cc(Nc2ccc(NC(=O)[C@@H]3CCCCN3)cc2)ncn1
	1 to 10	COc1ccccc1-c1cc(Nc2ccc(NC(=O)c3ccc(N)cc3)cc2)ncn1
	10 to 250	CCCN(c1ccc(Nc2cc(-c3ccccc3OC)ncn2)cc1)S(=O)(=O)c1ccc(C)cc1
	1 to 10	COc1ccccc1-c1cc(Nc2ccc(NC(=N)N)cc2)ncn1
	1 to 10	COc1ccccc1-c1cc(Nc2ccc(C(=O)NC3CCCCC3)cc2)ncn1
	1 to 10	COc1ccccc1-c1cc(Nc2ccc(NC(=O)[C@@H]3CCN3)cc2)ncn1
	10 to 250	COc1ccccc1-c1cc(Nc2ccc(NC(=O)C3CCCCC3)cc2)ncn1
	1 to 10	COc1ccccc1-c1cc(Nc2ccc(NC(=O)[C@@H](N)C(C)C)cc2)ncn1
	10 to 250	COc1ccccc1-c1cc(Nc2ccc(C(=O)Nc3ccc(C(C)(C)C)cc3)cc2)ncn1
	1 to 10	COc1ccccc1-c1cc(Nc2ccc(NS(=O)(=O)c3ccc(C(C)C)cc3)cc2)ncn1
